Data from patent US7282507B2, “Indole derivatives as selective androgen receptor modulators (SARMS)” (Janssen Pharmaceutica N.V., priority 2004, dated 2007).
Values joined by “and” are separate entries in the source; they are usually repeats but may differ in a detail not shown here. Equal entries are not always repeated.

Biological target: T1, androgen receptor LBD (Panvera) (Rattus norvegicus, UniProt P15207)
T1 construct: 5 pmol androgen receptor LBD (Panvera); purchased Panvera
T1 sequence (P15207 651-882 limits assumed): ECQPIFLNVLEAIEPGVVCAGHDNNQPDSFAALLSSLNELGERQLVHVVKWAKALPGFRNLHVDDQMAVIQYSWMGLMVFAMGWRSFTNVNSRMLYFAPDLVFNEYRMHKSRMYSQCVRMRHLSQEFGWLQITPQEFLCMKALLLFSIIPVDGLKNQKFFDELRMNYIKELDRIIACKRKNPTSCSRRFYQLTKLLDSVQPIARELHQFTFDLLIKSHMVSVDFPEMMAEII
Experiment: Androgen Receptor Filtration Binding Assay (PANVERA)
Settings: [3H] R1881 tracer 0.5 nM; read-out: IC50 (nM), Androgen Receptor Binding (Panvera)

SMILES | IC50 [nM]
CC(O)(CSc1ccc(N)cc1)c1cc2cc(Cl)c(C(F)(F)F)cc2[nH]1 (centres unmarked) [Compound 104] | 930

Biological target: T2, androgen receptor (rat ventral prostate cytosol) (Rattus norvegicus, UniProt P15207)
T2 construct: from tissue; host or cells: ventral prostate cytosol of castrated male Sprague Dawley or Wistar rats
T2 sequence (P15207 1-902): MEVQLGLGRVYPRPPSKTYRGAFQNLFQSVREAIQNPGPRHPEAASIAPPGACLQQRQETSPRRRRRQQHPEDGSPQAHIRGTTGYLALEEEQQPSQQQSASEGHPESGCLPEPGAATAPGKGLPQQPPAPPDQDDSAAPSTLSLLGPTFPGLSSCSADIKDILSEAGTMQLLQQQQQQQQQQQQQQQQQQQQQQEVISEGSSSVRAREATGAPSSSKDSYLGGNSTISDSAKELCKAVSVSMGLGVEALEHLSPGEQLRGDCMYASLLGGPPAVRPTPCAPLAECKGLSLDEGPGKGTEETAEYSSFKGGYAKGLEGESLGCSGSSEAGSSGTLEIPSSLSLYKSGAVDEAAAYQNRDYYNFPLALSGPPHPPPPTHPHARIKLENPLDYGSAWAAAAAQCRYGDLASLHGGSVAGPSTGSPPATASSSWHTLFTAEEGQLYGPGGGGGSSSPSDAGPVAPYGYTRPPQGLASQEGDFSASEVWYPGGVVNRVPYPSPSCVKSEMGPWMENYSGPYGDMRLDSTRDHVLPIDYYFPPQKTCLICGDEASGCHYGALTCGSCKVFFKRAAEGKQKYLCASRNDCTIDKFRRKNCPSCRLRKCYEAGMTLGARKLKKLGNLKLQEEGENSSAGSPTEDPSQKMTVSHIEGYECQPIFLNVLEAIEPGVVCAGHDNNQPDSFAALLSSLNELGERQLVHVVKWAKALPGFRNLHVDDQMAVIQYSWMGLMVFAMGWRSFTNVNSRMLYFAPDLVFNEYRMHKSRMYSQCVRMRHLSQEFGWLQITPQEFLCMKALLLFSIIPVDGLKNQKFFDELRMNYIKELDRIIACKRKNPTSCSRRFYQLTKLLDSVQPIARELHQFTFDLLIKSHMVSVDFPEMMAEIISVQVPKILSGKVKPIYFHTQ
Experiment: Androgen Receptor Binding Using Rat Ventral Prostate Cytosol
Settings: Concentration 1000 nM; read-out: % Inhibition, Androgen Receptor Binding (Rat Cytosol)
Outline: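 Cytosol from castrated rat ventral prostate was incubated overnight at 4°C with 0.5 nM [3H] tracer and compound in TED buffer (10 mM Tris-HCl pH 7.4, molybdate, EDTA, DTT, glycerol).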

SMILES | inhibition at 1 µM [%]
CC(O)(CSc1ccc(N)cc1)c1cc2cc(Cl)c(C(F)(F)F)cc2[nH]1 (centres unmarked) [Compound 104] | 94.5

Same assay, conditions: Concentration 3000 nM

SMILES | inhibition at 3 µM [%] | % Inhibition, Androgen Receptor Binding (Rat Cytosol) [%]
CSCCC(C)(O)c1cc2cc([N+](=O)[O-])c(C(F)(F)F)cc2[nH]1 (centres unmarked) [Compound 47] | 81 | –
CSCC(C)(O)c1cc2cc(Cl)c(C(F)(F)F)cc2[nH]1 (centres unmarked) [Compound 135] | 130 | –
CC(O)(CS(=O)(=O)c1ccc(N)cc1)c1cc2cc(Cl)c(C(F)(F)F)cc2[nH]1 (centres unmarked) [Compound 118] | 80.5 | –
CCSCC(C)(O)c1cc2cc([N+](=O)[O-])c(C(F)(F)F)cc2[nH]1 (racemic) [Compound 142] | 92 | –
CC(O)(CS(C)(=O)=O)c1cc2cc(Cl)c(C(F)(F)F)cc2[nH]1 (centres unmarked) [Compound 138] | 110 | –
CC(O)(CSc1ccc([N+](=O)[O-])cc1)c1cc2cc(Cl)c(C(F)(F)F)cc2[nH]1 (centres unmarked) [Compound 122] | 83.5 | –
CC(C)SCC(C)(O)c1cc2cc([N+](=O)[O-])c(C(F)(F)F)cc2[nH]1 (centres unmarked) [Compound 164] | 52 | –
CCSCC(O)(CC)c1cc2cc([N+](=O)[O-])c(C(F)(F)F)cc2[nH]1 (centres unmarked) [Compound 169] | 62 | –
CCSCC(C)(O)c1cc2cc([N+](=O)[O-])c(C(F)(F)F)cc2n1S(C)(=O)=O (centres unmarked) [Compound 141] | -4.5 | –
CCC(O)(CS(=O)(=O)CC)c1cc2cc([N+](=O)[O-])c(C(F)(F)F)cc2[nH]1 (centres unmarked) [Compound 176] | 90 | –
COc1ccc(S(=O)(=O)CC(C)(O)c2cc3cc(Cl)c(C(F)(F)F)cc3[nH]2)cc1 (racemic) [Compound 129] | – | 39.5
CSCC(C)(O)c1cc2cc(C#N)c(C(F)(F)F)cc2[nH]1 (centres unmarked) [Compound 136] | 38 | –
CC(O)(CSCc1ccccc1)c1cc2cc([N+](=O)[O-])c(C(F)(F)F)cc2[nH]1 (centres unmarked) [Compound 160] | 65 | –
CCCSCC(C)(O)c1cc2cc([N+](=O)[O-])c(C(F)(F)F)cc2[nH]1 (centres unmarked) [Compound 168] | 41 | –
CC(O)(CSc1ccc(O)cc1)c1cc2cc(Cl)c(C(F)(F)F)cc2[nH]1 (centres unmarked) [Compound 120] | 130 | –
CC(O)(CSCC(F)(F)F)c1cc2cc([N+](=O)[O-])c(C(F)(F)F)cc2[nH]1 (centres unmarked) [Compound 171] | 18 | –
CC(O)(CSC1CCCC1)c1cc2cc([N+](=O)[O-])c(C(F)(F)F)cc2[nH]1 (centres unmarked) [Compound 173] | 32 | –
COc1ccc(SCC(C)(O)c2cc3cc(Cl)c(C(F)(F)F)cc3[nH]2)cc1 (centres unmarked) [Compound 131] | 120 | –
CC(O)(CSc1ccc(N)cc1)c1cc2cc(Cl)c(C(F)(F)F)cc2[nH]1 (centres unmarked) [Compound 104] | 110 | –
CC(O)(CS(=O)(=O)c1ccc(O)cc1)c1cc2cc(Cl)c(C(F)(F)F)cc2[nH]1 (centres unmarked) [Compound 121] | 86 | –
CCS(=O)(=O)C[C@](C)(O)c1cc2cc([N+](=O)[O-])c(C(F)(F)F)cc2[nH]1 [Compound 156, 1-Ethanesulfonyl-2-(5-nitro-6-trifluoromethyl-1H-indol-2-yl)-propan-2-ol] | 66 | –
CCSCC(C)(O)c1cc2cc([N+](=O)[O-])c(C(F)(F)F)cc2n1C (racemic) [Compound 165] | 52 | –
CC(O)(C[S+]([O-])Cc1ccccc1)c1cc2cc([N+](=O)[O-])c(C(F)(F)F)cc2[nH]1 (mixture of isomers) [Compound 161] | – | 39
COc1ccc(SCC(C)(O)c2cc3cc(Cl)c(C(F)(F)F)cc3n2S(C)(=O)=O)cc1 (racemic) [Compound 130] | – | 32.55
CCSCC(O)c1cc2cc([N+](=O)[O-])c(C(F)(F)F)cc2[nH]1 (centres unmarked) [Compound 158] | 52 | –
CC[S+]([O-])C[C@](C)(O)c1cc2cc([N+](=O)[O-])c(C(F)(F)F)cc2[nH]1 (stereo in doubt) [Compound 155, 1-Ethanesulfinyl-2-(5-nitro-6-trifluoromethyl-1H-indol-2-yl)-propan-2-ol] | -6.1 | –
CC(O)(CCS(C)(=O)=O)c1cc2cc([N+](=O)[O-])c(C(F)(F)F)cc2[nH]1 (centres unmarked) [Compound 49] | 48 | –
CC(C)CSCC(C)(O)c1cc2cc([N+](=O)[O-])c(C(F)(F)F)cc2[nH]1 (centres unmarked) [Compound 170] | 80 | –

Same assay, conditions: Concentration 3000 nM; 3 µM

SMILES | % Inhibition, Androgen Receptor Binding (Rat Cytosol)
CC(O)(CS(C)(=O)=O)c1cc2cc([N+](=O)[O-])c(C(F)(F)F)cc2[nH]1 (centres unmarked) [Compound 140] | 47%
CCS(=O)(=O)CC(C)(O)c1cc2cc([N+](=O)[O-])c(C(F)(F)F)cc2[nH]1 (centres unmarked) [Compound 151] | 100%
CCSCC(C)(O)c1cc2cc([N+](=O)[O-])c(C(F)(F)F)cc2[nH]1 (single isomer, unassigned) [Compound 149] | 94% and 77%
CCS(=O)(=O)CC(C)(O)c1cc2cc([N+](=O)[O-])c(C(F)(F)F)cc2[nH]1 (centres unmarked) [Compound 143] | 14%
CSCC(C)(O)c1cc2cc([N+](=O)[O-])c(C(F)(F)F)cc2[nH]1 (single isomer, unassigned) [Compound 144] | 79%
CSCC(C)(O)c1cc2cc([N+](=O)[O-])c(C(F)(F)F)cc2[nH]1 (single isomer, unassigned) [Compound 145] | 58%
CCS(=O)(=O)C[C@](C)(O)c1cc2cc([N+](=O)[O-])c(C(F)(F)F)cc2[nH]1 [Compound 156, 1-Ethanesulfonyl-2-(5-nitro-6-trifluoromethyl-1H-indol-2-yl)-propan-2-ol] | 67%
CC(O)(CS(C)(=O)=O)c1cc2cc([N+](=O)[O-])c(C(F)(F)F)cc2[nH]1 (centres unmarked) [Compound 147] | 68%
CCSCC(C)(O)c1cc2cc([N+](=O)[O-])c(C(F)(F)F)cc2[nH]1 (single isomer, unassigned) [Compound 150] | 120%
CC(O)(CS(C)(=O)=O)c1cc2cc([N+](=O)[O-])c(C(F)(F)F)cc2[nH]1 (centres unmarked) [Compound 148] | 94%

Same assay, conditions: read-out: IC50 (nM), Androgen Receptor Binding (Rat Cytosol)

SMILES | IC50 [nM]
CC(O)(CSCC(F)(F)F)c1cc2cc([N+](=O)[O-])c(C(F)(F)F)cc2[nH]1 (centres unmarked) [Compound 171] | 320
